Among the data in ChEMBL document CHEMBL3727355, “Chemokine receptor activity regulator” (2014) are inhibition values, retold here.

This assay has as its target T1, C-C chemokine receptor type 10 (Homo sapiens) (UniProt P46092).
T1 sequence (whole entry): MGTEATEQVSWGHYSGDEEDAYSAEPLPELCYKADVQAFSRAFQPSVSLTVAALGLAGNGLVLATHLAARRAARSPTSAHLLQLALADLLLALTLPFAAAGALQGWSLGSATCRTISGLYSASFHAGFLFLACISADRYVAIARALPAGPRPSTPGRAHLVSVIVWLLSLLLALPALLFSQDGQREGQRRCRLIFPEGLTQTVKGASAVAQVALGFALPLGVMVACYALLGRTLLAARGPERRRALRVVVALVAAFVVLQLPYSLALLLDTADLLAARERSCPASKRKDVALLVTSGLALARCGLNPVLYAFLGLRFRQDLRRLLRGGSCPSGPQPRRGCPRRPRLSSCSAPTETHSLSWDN
As to the kind of experiment: Antagonist activity against human CCR10 expressed in human KJMGER8 cells assessed as inhibition of human recombinant CTACK-induced increase in intracellular calcium level at 100 nmol/L pre-incubated for 30 mins before human recombinant CTACK stimulation for 5 mins by FLIPR assay. The class given is functional, cell-based.
Regarding `Cc1cc(F)ccc1Nc1c(C(=O)N2CCC(c3ccc(F)cc3)CC2)cnc2c(S(=O)(=O)NC3CC3)cnn12`, the inhibition is more than 100%.

For the molecule `CCC(=O)NS(=O)(=O)c1cnn2c(Nc3cc(C)c(F)cc3Cl)c(C(=O)N3CCC(c4ccc(F)cc4)CC3)cnc12`, the inhibition was more than 100%. Turning to `CCC(=O)NS(=O)(=O)c1cnn2c(Nc3cc(C)ccc3Cl)c(C(=O)N3CCC4(CC3)OCc3ccccc34)cnc12`, the inhibition is more than 100%. The same measure for `CCC(=O)NS(=O)(=O)c1cnn2c(Nc3cc(C)ccc3F)c(C(=O)N3CCC(c4ccc(F)cc4)CC3)cnc12`: more than 100%; for `CC1(C(=O)NS(=O)(=O)c2cnn3c(Nc4cc(Cl)ccc4Cl)c(C(=O)N4CCC(c5ccc(F)cc5)CC4)cnc23)COC1`: more than 100%. The same measure for `CCC(=O)NS(=O)(=O)c1cnn2c(Nc3cc(Cl)ccc3Cl)c(C(=O)N3CCC(c4ccc(F)cc4)CC3)cnc12`: more than 100%.

On to `CCNS(=O)(=O)c1cnn2c(Nc3cc(C)ccc3Cl)c(C(=O)N3CCC(c4ccc(F)cc4)CC3)cnc12`, for which the inhibition stood at 87.8%.

On to `O=C(NS(=O)(=O)c1cnn2c(Nc3ccccc3Cl)c(C(=O)N3CCC(c4ccc(F)cc4)CC3)cnc12)C1CC1`, for which the inhibition worked out at 80.6%. The same measure for `Cc1ccc(F)c(Nc2c(C(=O)N3CCC4(CC3)OCc3ccccc34)cnc3c(S(=O)(=O)NC(=O)C4CC4)cnn23)c1`: more than 100%; for `COC(=O)NS(=O)(=O)c1cnn2c(Nc3ccc(F)cc3C)c(C(=O)N3CCC(c4ccccc4)CC3)cnc12`: 90.7%. Regarding `O=C(NC1CC1)NS(=O)(=O)c1cnn2c(Nc3ccc(F)cc3Cl)c(C(=O)N3CCC(c4ccc(F)cc4)CC3)cnc12`, the inhibition was more than 100%.

`Cc1ccc(Cl)c(Nc2c(C(=O)N3CCC4(CC3)OCc3ccccc34)cnc3c(S(=O)(=O)NC(=O)C4(C)COC4)cnn23)c1`: the inhibition was more than 100%. In the case of `O=CNS(=O)(=O)c1cnn2c(Nc3cc(Cl)ccc3Cl)c(C(=O)N3CCC(c4ccc(F)cc4)CC3)cnc12`, the inhibition was more than 100%. Regarding `CC(=O)NS(=O)(=O)c1cnn2c(Nc3ccc(F)cc3C)c(C(=O)N3CCC(c4ccccc4)CC3)cnc12`, the inhibition is more than 100%. The same measure for `Cc1cc(F)ccc1Nc1c(C(=O)N2CCC(c3ccccc3)CC2)cnc2c(S(=O)(=O)NS(C)(=O)=O)cnn12`: 88.8%; for `CC(=O)NS(=O)(=O)c1cnn2c(Nc3cc(C)ccc3Cl)c(C(=O)N3CCC4(CC3)OCc3ccccc34)cnc12`: more than 100%; for `O=C(c1cnc2c(S(=O)(=O)Nc3cccnn3)cnn2c1Nc1cc(Cl)ccc1Cl)N1CCC(c2ccc(F)cc2)CC1`: more than 100%. `CCC(=O)NS(=O)(=O)c1cnn2c(Nc3cc(C)ccc3Cl)c(C(=O)N3CCC(c4ccc(F)cc4)CC3)cnc12`: the inhibition is more than 100%. The same measure for `CCNC(=O)NS(=O)(=O)c1cnn2c(Nc3ccc(F)cc3C)c(C(=O)N3CCC(c4ccccc4)CC3)cnc12`: 72.6%; for `CC(=O)NS(=O)(=O)c1cnn2c(Nc3cccc(Cl)c3Cl)c(C(=O)N3CCC(c4ccc(F)cc4)CC3)cnc12`: more than 100%; for `CCC(=O)NS(=O)(=O)c1cnn2c(Nc3ccc(Cl)cc3Cl)c(C(=O)N3CCC(c4ccc(F)cc4)CC3)cnc12`: 97%.

For the molecule `CCNC(=O)NS(=O)(=O)c1cnn2c(Nc3ccc(C)cc3F)c(C(=O)N3CCC4(CC3)OCc3ccccc34)cnc12`, the inhibition is more than 100%. As to `Cc1ccc(Cl)c(Nc2c(C(=O)N3CCC4(CC3)OCc3ccccc34)cnc3c(S(=O)(=O)NC(=O)NCC(F)(F)F)cnn23)c1`, the inhibition is 75.3%. The same measure for `Cc1cc(F)ccc1Nc1c(C(=O)N2CCC(c3ccccc3)CC2)cnc2c(S(=O)(=O)NC(=O)CO)cnn12`: more than 100%; for `CCNC(=O)NS(=O)(=O)c1cnn2c(Nc3cc(Cl)ccc3Cl)c(C(=O)N3CCC(c4ccc(F)cc4)CC3)cnc12`: 96.7%; for `Cc1cc(F)ccc1Nc1c(C(=O)N2CCC(c3ccccc3)CC2)cnc2c(S(=O)(=O)NC(=O)Nc3ccccc3)cnn12`: 63.7%. For the molecule `CCNS(=O)(=O)c1cnn2c(Nc3cc(C)ccc3Cl)c(C(=O)N3CCC4(CC3)OCc3ccccc34)cnc12`, the inhibition worked out at 80.3%. On to `CCNC(=O)NS(=O)(=O)c1cnn2c(Nc3ccc(F)cc3C)c(C(=O)N3CCC4(CC3)OCc3ccccc34)cnc12`, for which the inhibition came to 92%. Turning to `CCNC(=O)NS(=O)(=O)c1cnn2c(Nc3ccc(Cl)c(Cl)c3)c(C(=O)N3CCC(c4ccc(F)cc4)CC3)cnc12`, the inhibition is more than 100%. The same measure for `O=C(NS(=O)(=O)c1cnn2c(Nc3ccccc3Cl)c(C(=O)N3CCC(c4ccccc4)CC3)cnc12)C1CC1`: 98.9%. On to `Cc1ccc(F)c(Nc2c(C(=O)N3CCC(c4ccc(F)cc4)CC3)cnc3c(S(=O)(=O)NC(=O)NC4CC4)cnn23)c1`, for which the inhibition is more than 100%. The same measure for `CCONS(=O)(=O)c1cnn2c(Nc3cc(Cl)ccc3Cl)c(C(=O)N3CCC(c4ccc(F)cc4)CC3)cnc12`: more than 100%.

On to `CCC(=O)NS(=O)(=O)c1cnn2c(Nc3ccc(C)cc3F)c(C(=O)N3CCC4(CC3)OCc3ccccc34)cnc12`, for which the inhibition was more than 100%.

As for `CCC(=O)NS(=O)(=O)c1cnn2c(Nc3cc(C)ccc3F)c(C(=O)N3CCC4(CC3)OCc3ccccc34)cnc12`, the inhibition was more than 100%. Take `CCNC(=O)NS(=O)(=O)c1cnn2c(Nc3cc(C)c(F)cc3Cl)c(C(=O)N3CCC(c4ccc(F)cc4)CC3)cnc12`: the inhibition was more than 100%. On to `CCNC(=O)NS(=O)(=O)c1cnn2c(Nc3cc(F)ccc3Cl)c(C(=O)N3CCC(c4ccc(F)cc4)CC3)cnc12`, for which the inhibition is more than 100%.

For `CCN(CC)S(=O)(=O)c1cnn2c(Nc3ccc(F)cc3C)c(C(=O)N3CCC(c4ccccc4)CC3)cnc12`, the inhibition was more than 100%. `Cc1cc(Cl)ccc1Nc1c(C(=O)N2CCC3(CC2)OCc2ccccc23)cnc2c(S(=O)(=O)NC(=O)C3CC3)cnn12`: the inhibition was more than 100%. The same measure for `CCNC(=O)NS(=O)(=O)c1cnn2c(NCc3ccccc3)c(C(=O)N3CCC(c4ccccc4)CC3)cnc12`: 95.1%; for `Cc1ccc(Cl)c(Nc2c(C(=O)N3CCC4(CC3)OCc3ccccc34)cnc3c(S(=O)(=O)NC(=O)NC4CCOCC4)cnn23)c1`: 62.3%. The same measure for `Cc1ccc(Cl)c(Nc2c(C(=O)N3CCC(c4ccc(F)cc4)CC3)cnc3c(S(=O)(=O)NC(=O)NC4CC4(F)F)cnn23)c1` (stereo not drawn): more than 100%. The same measure for `CC(=O)NS(=O)(=O)c1cnn2c(Nc3cc(Cl)ccc3F)c(C(=O)N3CCC(c4ccc(F)cc4)CC3)cnc12`: more than 100%; for `Cc1cc(F)ccc1Nc1c(C(=O)N2CCC(c3ccccc3)CC2)cnc2c(S(=O)(=O)NC(=O)C(F)(F)F)cnn12`: more than 100%; for `COCC(=O)NS(=O)(=O)c1cnn2c(Nc3ccc(F)cc3C)c(C(=O)N3CCC(c4ccccc4)CC3)cnc12`: 94.2%. As to `CCNS(=O)(=O)c1cnn2c(Nc3ccc(Cl)cc3C)c(C(=O)N3CCC(c4ccc(F)cc4)CC3)cnc12`, the inhibition is more than 100%. Turning to `CCC(=O)NS(=O)(=O)c1cnn2c(Nc3cc(F)ccc3F)c(C(=O)N3CCC(c4ccc(F)cc4)CC3)cnc12`, the inhibition is more than 100%. As to `CCC(=O)NS(=O)(=O)c1cnn2c(Nc3cc(Cl)ccc3Cl)c(C(=O)N3CCC4(CC3)OCc3ccccc34)cnc12`, the inhibition was more than 100%. Consider `Cc1cc(F)ccc1Nc1c(C(=O)N2CCC(c3ccccc3)CC2)cnc2c(S(=O)(=O)NC(=O)N3CCOCC3)cnn12`, for which the inhibition was found to be 85.9%.
